This is an account of results in patent US12459902B2, “Crystalline forms of 4-(7-hydroxy-2-isopropyl-4-oxo-4H-quinazolin-3-yl)-benzonitrile and formulations thereof” (priority 2020, dated 2025).

Molecules are shown by their SMILES. Converted amounts (≈) assume the structure as drawn.

Series [1] is described as follows: Water uptake on exposure to moisture (hygroscopicity). The conditions noted are these: for maximum water uptake: up to 95% RH at 25° C. In kind it is physicochemical.
Series [2] is classed as physicochemical.
The next series can be described thus: Solubility in water. To be noted: water at 25° C.

With `CC(C)c1nc2cc(O)ccc2c(=O)n1-c1ccc(C#N)cc1` [Hydrate HB, 4-(7-Hydroxy-2-isopropyl-4-oxo-4H-quinazolin-3-yl)-benzonitrile], in series [1] (above 70% RH, at 95% RH, 25° C.), the “additional water uptake above 70% RH” value is reported as “about 2.5%”. Further, the “water uptake up to 70% RH” value in series [1] (up to 70% RH at 25° C.) is on record as “slight uptake of water”.

For `CC(C)c1nc2cc(O)ccc2c(=O)n1-c1ccc(C#N)cc1` [crystal form B, 4-(7-Hydroxy-2-isopropyl-4-oxo-4H-quinazolin-3-yl)-benzonitrile], in series [2] (20° C., 30° C. and 35° C., isopropylacetate, dichloromethane, ethanol or water, 7 days), the “conversion of equimolar suspension of crystal form B and crystal form M” value was “converted after 7 days almost completely into crystal form M”.

As to `CC(C)c1nc2cc(O)ccc2c(=O)n1-c1ccc(C#N)cc1` [crystal form E, 4-(7-Hydroxy-2-isopropyl-4-oxo-4H-quinazolin-3-yl)-benzonitrile], the “conversion of equimolar suspension of crystal form M and crystal form E” value in series [2] (30° C., 35° C. and 45° C., isopropylacetate, dichloromethane, ethanol or water, 7 days) is “converted after 7 days completely into Modification M”.

Take `CC(C)c1nc2cc(O)ccc2c(=O)n1-c1ccc(C#N)cc1` [crystal form K′, 4-(7-Hydroxy-2-isopropyl-4-oxo-4H-quinazolin-3-yl)-benzonitrile]: the hygroscopicity entry in series [1] (25° C.) is given as “non-hygroscopic”. Besides, in series [1], the maximum water uptake result is “less than 0.2%”.

`CC(C)c1nc2cc(O)ccc2c(=O)n1-c1ccc(C#N)cc1` [crystal form M, 4-(7-Hydroxy-2-isopropyl-4-oxo-4H-quinazolin-3-yl)-benzonitrile]: in the series “Solubility in water”, the solubility in water came to 40 µg/mL (≈ 131 µM). The hygroscopicity result in series [1] (25° C.) is listed as “non hygroscopic”. Moreover, the maximum water uptake entry in series [1] is recorded as “less than 0.1%”. Moreover, the “thermodynamic stability relative to crystal form B” value in series [2] (temperature range from 20° C. to 35° C.) is “thermodynamically more stable than crystal form B”. Further, the “thermodynamic stability relative to crystal form Q” value in series [2] (temperature range from 22° C. to 35° C.) is listed as “thermodynamically more stable than crystal form Q”. The “thermodynamic stability relative to crystal form E” value in series [2] (temperature range from 30° C. to 45° C.) was “thermodynamically more stable than crystal form E”.

For the compound `CC(C)c1nc2cc(O)ccc2c(=O)n1-c1ccc(C#N)cc1` [crystal form Q, 4-(7-Hydroxy-2-isopropyl-4-oxo-4H-quinazolin-3-yl)-benzonitrile], the hygroscopicity result in series [1] (25° C.) is “non hygroscopic”. For the same compound, in series [1], the maximum water uptake entry was “less than 0.1%”. Further, the “conversion of equimolar suspension of crystal form M and crystal form Q” value in series [2] (22° C., 30° C. and 35° C., isopropylacetate, dichloromethane, ethanol or water, 7 days) is “converted after 7 days completely into crystal form M”.
